The target in one assay is T1, StCsm6′ (Streptococcus thermophilus, UniProt A0A0A7HFE6).
T1 construct: HSH (StrepII tag plus two 6xHis tags) (N); made in house; host or cells: E. coli DH10B (ara)
Put plainly: Csm6 nuclease assay, StCsm6′. The assay is classed as biochemical. The settings on record: ssRNA NS, 37° C. 30 min, 50 nM individual cyclic oligoadenylate. As for the experimental part: Csm6 nuclease assay. StCsm6, StCsm6′, and TtCsm6 nuclease assays were conducted in the Reaction buffer (33 mM Tris-acetate (pH 7.6 at 37° C.), 66 mM K-acetate, 0.1 mg/ml BSA) supplemented with 1 mM EDTA and containing 5 nM of 5′-radiolabeled and 5 nM of unlabeled RNA NS (unless stated otherwise; see all RNA substrates used in this study in Table 1) and 500 nM of cyclic oligoadenylate mixture or 0.5-500 nM of the HPLC purified cyclic oligoadenylate effectors or 5-500 nM linear oligoadenylate with various phosphorylation levels—linear oligoadenylate 5′-triphosphate (ChemGenes); non-phosphorylated, 3′P (Metabion) or 5′P containing linear oligoadenylates. 5′P-oligoadenylates were obtained by incubating 3.(3) μM of non-phosphorylated linear oligoadenylate with 0.5 U T4 polynucleotide kinase and 1 mM ATP in the Reaction buffer A at 37° C. for 40 min. […]
(FIG. 20A) Domain arrangement of StCsm6′. […] The elution profile of the StCsm6′ is presented with the calculated experimental molecular weight 108.1 kDa, corresponding to protein dimer. […]
Analysis of StCsm6 (FIG. 23A) and StCsm6′ (FIG. 23B) cleavage of ssRNA NS in the absence or presence of synthetic c(AMP)2 (c-di-AMP) (Sigma-Aldrich) or HPLC isolated c(AMP)3, c(AMP)4, c(AMP)5 (synthesized by StCsm from ATP) or c(AMP)6 (synthesized by StCsm from pp(pA)6 precursor). […] Samples were analyzed in denaturing PAAG, followed by phosphorimaging. […]

In the next assay the target is T2, StCsm6 (Streptococcus thermophilus, UniProt A0A0A7HIX6).
T2 construct: HSH (StrepII tag plus two 6xHis tags) (N); made in house; host or cells: E. coli DH10B (ara)
T2 sequence (A0A0A7HIX6 1-428): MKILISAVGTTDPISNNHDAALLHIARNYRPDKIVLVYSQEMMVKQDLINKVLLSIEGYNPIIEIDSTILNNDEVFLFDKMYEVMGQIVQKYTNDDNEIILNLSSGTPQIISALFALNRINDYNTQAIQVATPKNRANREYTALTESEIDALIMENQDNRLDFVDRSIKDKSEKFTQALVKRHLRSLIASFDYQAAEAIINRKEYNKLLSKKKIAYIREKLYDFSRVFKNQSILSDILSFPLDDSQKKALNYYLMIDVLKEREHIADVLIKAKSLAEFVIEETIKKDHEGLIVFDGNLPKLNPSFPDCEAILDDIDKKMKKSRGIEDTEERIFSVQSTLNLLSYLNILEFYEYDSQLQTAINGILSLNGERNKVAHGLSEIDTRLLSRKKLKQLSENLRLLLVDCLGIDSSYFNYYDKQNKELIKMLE
Nature of the assay: Csm6 nuclease assay, StCsm6. The class given is biochemical. The settings on record: ssRNA NS, 37° C. 30 min, 50 nM individual cyclic oligoadenylate.

T1 sequence (A0A0A7HFE6 whole entry): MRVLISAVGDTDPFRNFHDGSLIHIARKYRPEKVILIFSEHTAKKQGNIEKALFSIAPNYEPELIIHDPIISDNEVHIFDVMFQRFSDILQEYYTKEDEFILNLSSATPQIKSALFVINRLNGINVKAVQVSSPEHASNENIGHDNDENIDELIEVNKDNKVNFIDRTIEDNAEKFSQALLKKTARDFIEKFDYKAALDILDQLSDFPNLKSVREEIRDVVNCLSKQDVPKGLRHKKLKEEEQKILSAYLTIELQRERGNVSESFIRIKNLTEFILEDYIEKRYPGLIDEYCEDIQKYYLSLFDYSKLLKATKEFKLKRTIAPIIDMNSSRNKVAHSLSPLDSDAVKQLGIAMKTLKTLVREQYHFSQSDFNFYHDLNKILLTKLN

For the compound `Nc1ncnc2c1ncn2[C@@H]1O[C@@H]2COP(=O)(O)O[C@H]3[C@@H](O)[C@H](n4cnc5c(N)ncnc54)O[C@@H]3COP(=O)(O)O[C@H]2[C@H]1O` [c(AMP)2, c-di-AMP], the “stimulation of StCsm6′ ribonuclease activity” value at StCsm6′ is reported as “only c(AMP)6 stimulated”. For the same compound, the “stimulation of StCsm6 ribonuclease activity” value at StCsm6 is “only c(AMP)6 stimulated”.

Values taken from US12123031B2, “Regulation of CRISPR-associated rossman fold (CARF) domain containing proteins by oligoadenylates” (VILNIUS UNIVERSITY, priority 2017, dated 2024).
